What was measured:
human EP4 receptor = target: T1, human EP4 receptor (Homo sapiens, UniProt P35408); test: Binding ability to human EP receptors ([3H]PGE2 displacement), EP4; details: membranes expressing human EP4; [3H]PGE2 1 nM; Cheng-Prusoff; read-out: pKi (M) EP4 (converted)
T1 construct: expressed in transfected cells
Experimental: (§1) Membranes were prepared from cells stably transfected with human EP receptor cDNA. In brief, cells were cultured to confluency, scraped from culture flasks, and centrifuged (800 g, 8 minutes, 4° C.). Cells were twice washed in ice cold homogenisation buffer containing 10 mMTris-HCl, 1 mM EDTA.2Na, 250 mM sucrose, 1 mM PMSF, 0.3 mM indomethacin, pH 7.4, homogenised and re-centrifuged as before. The supernatant was stored on ice and pellets re-homogenised and re-spun. Supernatants were pooled and centrifuged at 40000 g, 10 minutes, 4° C. Resultant membrane pellets were stored at −80° C. until use. For assay, membranes expressing human EP4, EP3, EP2 or EP1 receptors were incubated in Millipore (MHVBN45) plates containing assay buffer, radiolabelled [^3H]PGE2 and 0.1 to 10 000 nM concentrations of compounds. Incubations were performed at suitable temperatures and for suitable times to allow equilibrium to be reached. Non-specific binding was determined in the presence of 10 uM PGE2. Bound and free radiolabel was separated by vacuum manifold filtration using appropriate wash buffers, and bound radiolabel was determined by scintillation counting. Constituents of each of the buffers are included in table 1 below. […] Raven Press, New York, 2nd edition.

human EP2 receptor = target: T2, human EP2 receptor (Homo sapiens, UniProt P43116); test: Binding ability to human EP receptors ([3H]PGE2 displacement), EP2; details: membranes expressing human EP2; [3H]PGE2 3 nM; Cheng-Prusoff; read-out: pKi (M) EP2 (converted)
T2 construct: expressed in transfected cells
T2 sequence (P43116 whole entry): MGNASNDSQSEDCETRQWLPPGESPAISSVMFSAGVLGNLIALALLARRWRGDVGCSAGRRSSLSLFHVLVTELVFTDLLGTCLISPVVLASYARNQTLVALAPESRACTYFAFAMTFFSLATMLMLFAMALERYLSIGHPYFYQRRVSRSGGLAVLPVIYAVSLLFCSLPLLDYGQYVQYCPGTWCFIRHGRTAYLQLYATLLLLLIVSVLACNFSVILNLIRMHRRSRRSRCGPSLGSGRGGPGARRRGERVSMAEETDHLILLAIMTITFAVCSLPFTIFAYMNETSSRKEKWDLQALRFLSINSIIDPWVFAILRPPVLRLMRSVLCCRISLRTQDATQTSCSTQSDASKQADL
Experimental: as §1

[1] = target: T3, human EP2 prostanoid receptors (Homo sapiens, UniProt P43116); test: Agonist activity at recombinant human EP2 prostanoid receptors (cAMP in HEK-293 clones); type: cell-based; details: for EC50: HEK-293 stably transfected with human EP2, cAMP accumulation, read-out: pEC50 EP2 (converted); for activity (EP2 part): functional classification at EP2
T3 construct: expressed in transfected cells; host or cells: HEK-293
T3 sequence (P43116 whole entry): as above
Experimental: Culture media was Minimal essential media (MEM), supplemented with 10% foetal bovine serum, 100 U/ml penicillin, […] streptomycin, 2.5 μg/ml fungizone, 2mM glutamine. Cells were cultured to confluency (3-4 days) prior to use. Culture media was removed, and confluent cells washed three times in MEM. […] Cells were then stimulated by the addition of 25 μl of PGE2 or agonists prepared in assay buffer. In antagonist studies, cells were pre-incubated with compounds for 30 minutes prior to PGE2-mediated stimulation Plates were incubated for 15 min at 37° C., before termination of the reaction by the addition of 25 μl 1M HCl. The plate was then frozen at -20° C. overnight before determination of cAMP concentration. Stimulated cAMP levels were determined by radioligand displacement binding. In brief, plates were thawed rapidly in a waterbath, and the samples neutralised by the addition of 25 μl 1M NaOH. 30 μl was transferred to Millipore plates pre-coated with 0.5% Polyethylenimine (PEI). Samples were diluted by addition of 90 μl cAMP determination buffer (50 mM Tris, 5 mM EDTA, pH 7.0). […] 15 μl of 2 nM (final concentration) [^3H] cAMP, and 15 μl of 3'5'-cAMP protein kinase (8 μg/well final concentration) prepared in cAMP determination buffer containing 0.1% BSA, were added to each well. Plates were incubated on ice for 2 hours, before bound and free radiolabel were separated by vacuum filtration harvesting using the Millipore vacuum manifold, using ice cold water as the termination buffer. The sealing mat was removed from the Millipore plates, and the filters allowed to dry overnight. 50 μl Microscint 0 (Packard Bioscience) was added to each well, and the plate counted using the Micro-Beta Trilux topcount ^3H program. cAMP accumulation was determined from the standard curve, and values calculated in pmoles cAMP/well. Antagonists affinities (pA2 values) were determined assuming a slope of unity and the […]-Schild equation, where pA2=log [concentration ratio-1]-log[antagonist].

human EP3 receptor = target: T4, human EP3 receptor (Homo sapiens, UniProt P43115); test: Binding ability to human EP receptors ([3H]PGE2 displacement), EP3; details: membranes expressing human EP3; [3H]PGE2 2.5 nM; Cheng-Prusoff; read-out: pKi (M) EP3 (converted)
T4 construct: expressed in transfected cells
T4 sequence (P43115 1-390): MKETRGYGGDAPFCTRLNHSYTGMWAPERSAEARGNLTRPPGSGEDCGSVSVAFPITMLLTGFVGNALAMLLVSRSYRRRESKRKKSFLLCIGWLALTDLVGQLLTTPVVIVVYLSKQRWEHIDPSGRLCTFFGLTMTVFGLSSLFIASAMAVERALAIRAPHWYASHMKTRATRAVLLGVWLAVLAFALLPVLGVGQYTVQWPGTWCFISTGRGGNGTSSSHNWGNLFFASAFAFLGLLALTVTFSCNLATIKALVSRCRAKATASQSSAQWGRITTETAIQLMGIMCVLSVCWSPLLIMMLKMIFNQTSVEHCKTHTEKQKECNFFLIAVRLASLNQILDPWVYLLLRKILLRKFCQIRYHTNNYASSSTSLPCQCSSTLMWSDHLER
Experimental: as §1

T1 sequence (P35408 whole entry): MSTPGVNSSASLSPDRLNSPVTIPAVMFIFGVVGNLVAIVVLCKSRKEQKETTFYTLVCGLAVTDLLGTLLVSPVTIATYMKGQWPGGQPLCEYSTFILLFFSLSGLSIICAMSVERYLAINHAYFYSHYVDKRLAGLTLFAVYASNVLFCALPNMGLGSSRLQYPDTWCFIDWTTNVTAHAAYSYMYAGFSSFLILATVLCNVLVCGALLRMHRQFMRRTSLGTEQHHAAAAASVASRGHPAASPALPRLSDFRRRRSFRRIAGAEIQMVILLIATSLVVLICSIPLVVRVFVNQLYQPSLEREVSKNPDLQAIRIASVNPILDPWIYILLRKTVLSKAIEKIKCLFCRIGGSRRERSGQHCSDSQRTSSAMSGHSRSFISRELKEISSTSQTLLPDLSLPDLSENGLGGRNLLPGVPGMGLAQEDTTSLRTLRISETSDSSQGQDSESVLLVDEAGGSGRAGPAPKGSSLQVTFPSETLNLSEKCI

Row | Compound | Ki (human EP4 receptor) [M] | Ki (human EP2 receptor) [M] | EC50 [1] [µM] | activity (EP2 part) [1] | Ki (human EP3 receptor) [M]
1 | O=C(O)Cc1cccc(NC(=O)c2ccc(-c3ccc4[nH]ccc4c3)o2)c1 [Compound 41] | > 1e-05 | < 1e-06 | < 1 | EP2 agonist | > 1e-05
2 | O=C(O)Cc1cccc(NC(=O)c2ccc(-c3ccc(F)cc3)o2)c1 [Compound 42, (3-{[5-(4-Fluoro-phenyl)-furan-2-carbonyl]-amino}-phenyl)-acetic acid] | > 1e-05 | < 1e-06 | < 0.1 | EP2 agonist | > 1e-05
3 | O=C(O)Cc1cccc(NC(=O)c2cc(-c3ccccc3)ccc2Cl)c1 [Compound 44, {3-[(4-Chloro-biphenyl-3-carbonyl)-amino]-phenyl}-acetic acid] | > 1e-05 | < 1e-06 | < 0.1 | EP2 agonist | > 1e-05
4 | O=C(O)Cc1cccc(NC(=O)c2cccc(-c3ccccc3)n2)c1 [Compound 45, {3-[(6-Phenyl-pyridine-2-carbonyl)-amino]-phenyl}-acetic acid] | > 1e-05 | < 1e-06 | < 0.1 | EP2 agonist | > 1e-05
5 | O=C(O)Cc1cccc(NC(=O)c2cccc(-c3ccccc3)c2)c1 [Compound 49, {3-[(Biphenyl-3-carbonyl)-amino]-phenyl}-acetic acid] | > 1e-05 | < 1e-06 | < 0.1 | EP2 agonist | > 1e-05
6 | O=C(O)Cc1cccc(NC(=O)c2cc(-c3ccccc3)ccc2F)c1 [Compound 51, {3-[(4-Fluoro-biphenyl-3-carbonyl)-amino]-phenyl}-acetic acid] | > 1e-05 | < 1e-06 | < 0.1 | EP2 agonist | > 1e-05
7 | O=C(O)Cc1cccc(NC(=O)c2cc(F)cc(-c3ccccc3)c2)c1 [Compound 52, {3-[(5-fluoro-biphenyl-3-carbonyl)-amino]-phenyl}-acetic acid] | > 1e-05 | < 1e-06 | < 0.1 | EP2 agonist | > 1e-05
8 | O=C(O)Cc1cccc(NC(=O)c2csc(-c3ccccc3)n2)c1 [Compound 54, {3-[(2-Phenyl-thiazole-4-carbonyl)-amino]-phenyl}-acetic acid] | > 1e-05 | < 1e-06 | < 1 | EP2 agonist | > 1e-05
9 | O=C(O)c1cccc(CNC(=O)c2ccc(-c3ccccc3)o2)c1 [Compound 57, 3-{[(5-Phenyl-furan-2-carbonyl)-amino]-methyl}-benzoic acid] | > 1e-05 | < 1e-05 | < 1 | EP2 Agonist | > 1e-05
10 | O=C(O)CCc1cccc(NC(=O)c2ccc(-c3ccccc3)o2)c1 [Compound 62, 3-{3-[(5-Phenyl-furan-2-carbonyl)-amino]-phenyl}-propionic acid] | > 1e-05 | < 1e-06 | < 0.1 | EP2 agonist | > 1e-05
11 | O=C(O)/C=C/c1cccc(NC(=O)c2ccc(-c3ccc(F)cc3)o2)c1 [Compound 71, 3-(3-{[5-(4-Fluoro-phenyl)-furan-2-carbonyl]-amino}-phenyl)-acrylic acid] | > 1e-05 | < 1e-07 |  | EP2 agonist | > 1e-05
12 | O=C(Nc1cccc(CCO)c1)c1ccc(-c2ccccc2)o1 [Compound 74] | > 1e-05 | < 1e-05 | < 10 |  | > 1e-05
13 | O=C(Nc1cccc(Cc2nnn[nH]2)c1)c1ccc(-c2cccc(Cl)c2)o1 [Compound 81, 5-(3-Chloro-phenyl)-furan-2-carboxylic acid [3-(1H-tetrazol-5-ylmethyl)-phenyl]-amide] | > 1e-05 | < 1e-07 | < 0.1 | EP2 Agonist | > 1e-05
14 | O=C(Nc1cccc(Cc2nnn[nH]2)c1)c1ccc(-c2cc(Cl)cc(Cl)c2)o1 [Compound 82, 5-(3,5-Dichloro-phenyl)-furan-2-carboxylic acid [3-(1H-tetrazol-5-ylmethyl)-phenyl]-amide] | > 1e-05 | < 1e-07 | < 0.1 | EP2 Agonist | > 1e-05
15 | O=C(Nc1cccc(Cc2nnn[nH]2)c1)c1ccc(-c2ccc(F)cc2)o1 [Compound 85, 5-(4-Fluoro-phenyl)-furan-2-carboxylic acid [3-(1H-tetrazol-5-ylmethyl)-phenyl]-amide] | > 1e-05 | < 1e-07 | < 0.1 | EP2 Agonist | > 1e-05
16 | O=C(Nc1cccc(Cc2nnn[nH]2)c1)c1ccc(-c2ccc(Cl)cc2)o1 [Compound 87, 5-(4-Chloro-phenyl)-furan-2-carboxylic acid [3-(1H-tetrazol-5-ylmethyl)-phenyl]-amide] | > 1e-05 | < 1e-07 | < 0.1 | EP2 Agonist | > 1e-05
17 | O=C(Nc1cccc(/C=C/c2nnn[nH]2)c1)c1ccc(-c2ccccc2)o1 [Compound 89, 5-Phenyl-furan-2-carboxylic acid {3-[2-(1H-tetrazol-5-yl)-vinyl]-phenyl}-amide] | > 1e-05 | < 1e-07 | < 0.1 | EP2 Agonist | > 1e-05
18 | O=C(Nc1cccc(/C=C/c2nnn[nH]2)c1)c1ccc(-c2cccc(Cl)c2)o1 [Compound 90, 5-(3-Chloro-phenyl)-furan-2-carboxylic acid {3-[2-(1H-tetrazol-5-yl)-vinyl]-phenyl}-amide] | > 1e-05 | < 1e-07 | < 0.1 | EP2 Agonist | > 1e-05
19 | O=C(Nc1cccc(Cc2nnn[nH]2)c1)c1cccc(-c2ccccc2)n1 [Compound 92, 6-Phenyl-pyridine-2-carboxylic acid [3-(1H-tetrazol-5-ylmethyl)-phenyl]-amide] | > 1e-05 | < 1e-06 | < 0.1 | EP2 Agonist | > 1e-05
20 | O=C(Nc1cccc(Cc2nnn[nH]2)c1)c1cccc(-c2ccc(F)cc2)n1 [Compound 93, 6-(4-Fluoro-phenyl)-pyridine-2-carboxylic acid [3-(1H-tetrazol-5ylmethyl)-phenyl]-amide] | > 1e-05 | < 1e-07 | < 0.1 | EP2 Agonist | > 1e-05
21 | O=C(Nc1cccc(Cc2nnn[nH]2)c1)c1cccc(-c2cccc(F)c2)n1 [Compound 94, 6-(3-Fluoro-phenyl)-pyridine-2-carboxylic acid [3-(1H-tetrazol-5ylmethyl)-phenyl]-amide] | > 1e-05 | < 1e-07 | < 0.1 | EP2 Agonist | > 1e-05
